Results reported in US20090275557A1, “Novel Composition for Treatment of Diseases Related to Activated Lymphocytes” (Immune Control, Inc., priority 2008, published 2009).
Values joined by “and” are separate entries in the source; they are usually repeats but may differ in a detail not shown here. Equal entries are not always repeated. Where two headings read alike, the source gives them in different places.

What was measured:
[1] = system: bovine type 2 collagen immunized female Lewis rats; assay: Collagen-induced arthritis assay, oral gavage treatment, ankle diameter; assay type: in vivo, rat; conditions: oral 25 mg/kg; study days 5-7
Protocol: (§1) Female Lewis rats (CR) weighing between 125-200 g were immunized with bovine type 2 collagen, 2 mg/ml in a 1:1 solution of 0.01 N acetic acid and Freund's incomplete adjuvant (“FIA”). A 0.1 ml portion of the collagen solution was injected id (intradermally) at three sites on the rat. Rats were immunized with the collagen solution on days 1 and 6 of the study. […] On day 9 (study day “0”), baseline ankle diameters were measured. On days 10-15 (study days 1-6), the rats were then treated, via oral gavage, with either 1, 5, or 25 mg/kg of one of ICI-1259 or ICI-1260, prepared as described below. Ankle diameter measurements were measured on each of days 10-16.
Separate solutions of ICI-1259 and ICI-1260 were prepared in Dulbecco's PBS (pH 7) (“vehicle”) at 1 mg/ml. Control animals, who had not been immunized, were given vehicle without any compound. In a further control, immunized rats were given vehicle without ICI-1259 or ICI-1260. In still another control, immunized rats were treated with Enbrel™ at 10 mg/kg.

[2] = Pharmacokinetic study, oral gavage in fasted male Sprague-Dawley rats; assay type: in vivo, rat; conditions: for Tmax: read-out: tmax
Protocol: ICI-1259 and ICI-1260 were supplied as powders and stored frozen until used. Dosing solutions in phosphate buffered saline were prepared at 1 mg/ml. These solutions were then evaluated in fasted male Sprague-Dawley rats. The rats were fitted with a jugular vein cannula for blood sampling. Rats were also fitted with an additional jugular vein cannula, or intradudodenal cannula as needed. Rats were given a commercial rodent diet ad libitum prior to study initiation. Food was then withheld from the animals for a minimum of twelve hours prior to dosing, until four hours postdose when food was returned. Water was supplied ad libitum. Three rats were used in each study, unless otherwise indicated.
For both ICI-1259 and ICI-1260, rats were given a 10 mg/kg dose from a 1 mg/ml solution. The appropriate volume of solution was given as a single bolus dose at time zero on the day of dosing. Blood samples were taken at predose, 5 minutes after dosing, 10 minutes after dosing, 15 minutes after dosing, 30 minutes after dosing, 1 hour after dosing, 2 hours after dosing, 4 hours after dosing, 6 hours after dosing, and 8 hours after dosing.

[3] = system: bovine type 2 collagen immunized rats; assay: Collagen-induced arthritis assay, IP injection protocol, ankle diameter; assay type: in vivo, rat
Protocol: as §1
Compounds ICI-1259, ICI-1260, ICI-1505, and ICI-1506 were administered via IP injection to treat collagent-induced arthritis in a variation of the experiments described above. Under the protocol of the IP injection experiments, animal were immunized with Bovine Type 2 collagen as previously described. […] On day 9 (study day “0”), baseline ankle diameters were measured. On days 10-12 (study days 1-3), the rats were then treated once per day, via IP injection, with one of ICI-1259, ICI-1260, ICI-1505, or ICI-1506 at 10 mg/kg. Ankle diameter in the immunized rodents was measured on each of days 10-13 as well as on day 14. […] See FIG. 18 (ICI-1259, ICI-1260, and ICI-1505) and FIG. 19 (ICI-1506).
In a separate study, using the IP injection protocol described above, ICI-1259 and 1260 were each dosed at 2 mg/kg and 0.4 mg/kg.

5-HT1B = assay: 5-HT receptor binding, displacement of tritiated ligands; conditions: at 10 μM
Protocol: (§2) 5-HT receptor binding was measured using membrane preparations of brain regions known to be enriched with given 5-HT receptor subtype(s). The assay subsequently measured the displacement of tritiated ligands known to bind to a given 5-HT subtype.
(§3) A receptor binding assay was performed for ICI-1259 and ICI-1260 showing that at 10 μM, these compounds bind receptors 5-HT1A(h), 5-HT1B, 5-HT1D(h), 5-HT2A, 5-HT2A(h), 5-HT2B, 5-HT2C, 5-HT3,5-HT3(h), 5-HT4, 5-HT5A(h), 5-HT6, and 5-HT7.

5-HT2C = assay: as above; conditions: at 10 μM
Protocol: as §2, §3

5-HT1D(h) = target: T1, 5-HT1D(h) (Homo sapiens, UniProt P28221); assay: as above; conditions: at 10 μM
T1 construct: from tissue
T1 sequence (P28221 whole entry): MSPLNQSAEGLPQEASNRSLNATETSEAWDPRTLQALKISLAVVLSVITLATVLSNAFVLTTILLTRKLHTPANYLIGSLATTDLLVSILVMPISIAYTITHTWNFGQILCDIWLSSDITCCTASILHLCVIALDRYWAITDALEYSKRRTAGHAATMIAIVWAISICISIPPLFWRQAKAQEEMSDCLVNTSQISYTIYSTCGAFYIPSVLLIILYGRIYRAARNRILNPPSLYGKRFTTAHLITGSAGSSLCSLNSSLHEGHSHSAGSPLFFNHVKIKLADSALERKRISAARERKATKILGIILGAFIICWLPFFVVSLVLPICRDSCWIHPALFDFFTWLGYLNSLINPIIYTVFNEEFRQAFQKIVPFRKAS
Protocol: as §2, §3

5-HT3(h) = target: T2, 5-HT3(h) (Homo sapiens, UniProt P46098); assay: as above; conditions: at 10 μM
T2 construct: from tissue
T2 sequence (P46098 24-478): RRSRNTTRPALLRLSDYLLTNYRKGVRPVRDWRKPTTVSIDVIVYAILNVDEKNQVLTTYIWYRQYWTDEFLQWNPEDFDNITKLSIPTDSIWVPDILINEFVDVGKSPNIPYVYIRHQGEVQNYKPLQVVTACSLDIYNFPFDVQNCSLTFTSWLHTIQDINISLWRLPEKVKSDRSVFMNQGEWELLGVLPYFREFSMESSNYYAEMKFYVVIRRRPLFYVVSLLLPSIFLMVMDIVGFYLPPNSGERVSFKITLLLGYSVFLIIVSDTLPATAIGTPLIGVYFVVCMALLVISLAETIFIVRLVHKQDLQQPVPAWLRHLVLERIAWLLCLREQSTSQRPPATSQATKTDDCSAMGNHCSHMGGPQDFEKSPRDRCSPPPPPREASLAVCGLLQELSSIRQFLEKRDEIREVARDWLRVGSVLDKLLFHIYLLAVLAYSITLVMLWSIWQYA
Protocol: as §2, §3

5-HT3 = assay: as above; conditions: at 10 μM
Protocol: as §2, §3

[4] = individual rats, oral gavage 10 mg/kg, 10 mg/kg
[5] = male, Sprague-Dawley, rat, plasma, po, 10 mg/kg, individual rats, oral gavage 10 mg/kg
[6] = male, Sprague-Dawley, rat, plasma, po, 10 mg/kg, mean, oral gavage 10 mg/kg

- dose absorbed after oral dosing ([2]; indirectly indicated by the average bioavailability, oral 10 mg/kg): approximately 38%
- AUClast [2, 4]: 98.7 ng·h/mL and 74.2 ng·h/mL
- Cmax [2, 4]: 28.4 ng/mL and 24.3 ng/mL
- Plasma concentration ([2]; individual rats, oral gavage 10 mg/kg, 0.083 hr, BLOQ = below limit of quantitation (1 ng/mL)): BLOQ
- Plasma concentration ([2]; individual rats, oral gavage 10 mg/kg, 0.25 hr, 10 mg/kg): 1.10 ng/mL and 3.38 ng/mL and 4.62 ng/mL
- Plasma concentration ([2]; individual rats, oral gavage 10 mg/kg, 0.50 hr, 10 mg/kg): 1.56 ng/mL and 3.45 ng/mL and 5.39 ng/mL
- Plasma concentration ([2]; individual rats, oral gavage 10 mg/kg, 1.0 hr, 10 mg/kg): 5.21 ng/mL and 17.6 ng/mL and 4.81 ng/mL
- Plasma concentration ([2]; individual rats, oral gavage 10 mg/kg, 2.0 hr, 10 mg/kg): 28.4 ng/mL and 24.3 ng/mL
- Plasma concentration ([2]; individual rats, oral gavage 10 mg/kg, 4.0 hr, 10 mg/kg): 7.49 ng/mL and 7.34 ng/mL
- Plasma concentration ([2]; individual rats, oral gavage 10 mg/kg, 6.0 hr, 10 mg/kg): 10.8 ng/mL and 6.73 ng/mL
- Plasma concentration ([2]; individual rats, oral gavage 10 mg/kg, 8.0 hr, 10 mg/kg): 4.35 ng/mL and 3.04 ng/mL
- bioavailability ([2]; individual rats, oral gavage 10 mg/kg, dose normalized AUC divided by average intravenous AUC, 10 mg/kg): 17% and 13%
- AUC(0-t) [2, 5]: 65.2 ng·h/mL
- concentration at 2 hr ([2]; male, Sprague-Dawley, rat, plasma, po, 10 mg/kg, individual rats, oral gavage 10 mg/kg, 2.0 hr): 16.6 ng/mL
- concentration at 4 hr ([2]; male, Sprague-Dawley, rat, plasma, po, 10 mg/kg, individual rats, oral gavage 10 mg/kg, 4.0 hr): 8.31 ng/mL
- concentration at 6 hr ([2]; male, Sprague-Dawley, rat, plasma, po, 10 mg/kg, individual rats, oral gavage 10 mg/kg, 6.0 hr): 7.85 ng/mL
- concentration at 8 hr ([2]; male, Sprague-Dawley, rat, plasma, po, 10 mg/kg, individual rats, oral gavage 10 mg/kg, 8.0 hr): 3.28 ng/mL
- bioavailability ([2]; male, Sprague-Dawley, rat, plasma, po, 10 mg/kg, individual rats, oral gavage 10 mg/kg, dose normalized AUC divided by average intravenous AUC, read-out: Bioavailability): 11%
- Cmax ([2]; male, Sprague-Dawley, rat, plasma, po, 10 mg/kg, individual rats, oral gavage 10 mg/kg, read-out: Cmax): 16.6 ng/mL
- Tmax [2, 5]: 2 h
- bioavailability ([2]; male, Sprague-Dawley, rat, plasma, po, 10 mg/kg, mean (average), oral gavage 10 mg/kg, read-out: Bioavailability): 14%
- AUC(0-t) [2, 6]: 79.4 ng·h/mL
- concentration at 0.25 hr ([2]; male, Sprague-Dawley, rat, plasma, po, 10 mg/kg, mean, oral gavage 10 mg/kg, 0.25 hr): 3.03 ng/mL
- concentration at 0.5 hr ([2]; male, Sprague-Dawley, rat, plasma, po, 10 mg/kg, mean, oral gavage 10 mg/kg, 0.50 hr): 3.47 ng/mL
- concentration at 1 hr ([2]; male, Sprague-Dawley, rat, plasma, po, 10 mg/kg, mean, oral gavage 10 mg/kg, 1.0 hr): 9.21 ng/mL
- concentration at 2 hr ([2]; male, Sprague-Dawley, rat, plasma, po, 10 mg/kg, mean, oral gavage 10 mg/kg, 2.0 hr): 23.1 ng/mL
- concentration at 4 hr ([2]; male, Sprague-Dawley, rat, plasma, po, 10 mg/kg, mean, oral gavage 10 mg/kg, 4.0 hr): 7.71 ng/mL
- concentration at 6 hr ([2]; male, Sprague-Dawley, rat, plasma, po, 10 mg/kg, mean, oral gavage 10 mg/kg, 6.0 hr): 8.46 ng/mL
- concentration at 8 hr ([2]; male, Sprague-Dawley, rat, plasma, po, 10 mg/kg, mean, oral gavage 10 mg/kg, 8.0 hr): 3.56 ng/mL
- Cmax ([2]; male, Sprague-Dawley, rat, plasma, po, 10 mg/kg, mean, oral gavage 10 mg/kg, read-out: Cmax): 23.1 ng/mL
- Tmax [2, 6]: 2 h
- Dose Normalized AUClast ([2]; mean, oral gavage 10 mg/kg): 7.94 kg·ng·h/mL/mg
- receptor binding (5-HT1B): bind
- receptor binding (5-HT2C): bind
- receptor binding (5-HT1D(h)): bind
- receptor binding (5-HT3(h)): bind
- receptor binding (5-HT3): bind
Structure (SMILES): CNCC(=O)NCCCN1CCC(CCCN2c3ccccc3Sc3ccc(C(F)(F)F)cc32)CC1 [ICI-1259, 2-(methylamino)-N-(3-(4-(3-(2-(trifluoromethyl)-10H-phenothiazin-10-yl)propyl)piperidin-1-yl)propyl)acetamide]
- reduction in ankle swelling [1]: statistically significant reduction in ankle swelling
- Dose Normalized AUClast [2, 4]: 6.52 kg·ng·h/mL/mg and 9.87 kg·ng·h/mL/mg and 7.42 kg·ng·h/mL/mg
- reduction in ankle swelling (ankle diameter) ([3]; IP injection 0.4 mg/kg): Statistically significant results were only observed for ICI-1260 at 2 mg/kg
- reduction in ankle swelling (ankle diameter) ([3]; IP injection 2 mg/kg, study days 3 and 4): Statistically significant results were only observed for ICI-1260 at 2 mg/kg
- reduction in ankle swelling (ankle diameter) ([3]; IP injection 10 mg/kg once per day, study days 1-3, observed on study days 2-4): statistically significant results were observed
